# Columns and labels:
# [1] = target: T1, human LXRβ ligand binding domain (Homo sapiens, UniProt P55055); assay: Assay for LXRβ Activity (HTRF, SRC-1 peptide recruitment); assay type: biochemical; settings: 1 μM; over a background reading of 10000 fluorescence units
# T1 construct: made in house; host or cells: E. coli BL21 (DE3), vector pRSETa
# T1 sequence (P55055 184-460 limits assumed): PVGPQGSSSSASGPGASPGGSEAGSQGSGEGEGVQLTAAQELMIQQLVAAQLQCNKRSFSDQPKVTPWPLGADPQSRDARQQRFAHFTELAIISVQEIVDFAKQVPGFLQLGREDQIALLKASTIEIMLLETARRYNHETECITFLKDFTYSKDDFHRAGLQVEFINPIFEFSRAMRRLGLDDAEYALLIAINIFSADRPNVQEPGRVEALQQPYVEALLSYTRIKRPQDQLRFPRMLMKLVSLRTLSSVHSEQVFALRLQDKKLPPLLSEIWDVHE
# T1 sequence (Q15788 676-700 partner limits assumed): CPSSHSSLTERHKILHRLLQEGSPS
# Description: A modified polyhistidine tag (MKKGHHHHHHG) (SEQ ID No. 1) was fused in frame to the human LXRβ ligand binding domain (amino acids 185-461 of Genbank accession number U07132) and subcloned into the expression vector pRSETa (Invitrogen) under the control of an IPTG inducible T7 promoter. The human LXRβ ligand binding domain was expressed in E. coli strain BL21 (DE3). Ten-liter fermentation batches were grown in Rich PO4 media with 0.1 mg/mL Ampicillin at 25° C. for 12 hours, cooled to 9° C. and held at that temperature for 36 hours to a density of OD600=14. At this cell density, 0.25 mM IPTG was added and induction proceeded for 24 hours at 9° C., to a final OD600=16. Cells were harvested by centrifugation (20 minutes, 3500 g, 4° C.), and concentrated cell slurries were stored in PBS at −80° C.
# Typically 25-50 g of cell paste is resuspended in 250-500 mL TBS, pH 8.0 (25 mM Tris, 150 mM NaCl). Cells are lysed by passing 3 times through an APV Rannie MINI-lab homogenizer and cell debris is removed by centrifugation (30 minutes, 20,000 g, 4° C.). […] After washing to baseline absorbance with equilibration buffer, the column is washed with approximately one column volume of TBS pH […] containing 95 mM imidazole. […] After washing to baseline absorbance with the dilution buffer the protein is eluted with a gradient from 50-500 mM NaCl. […]
# [2] = target: T2, LXRα ligand binding domain (Homo sapiens, UniProt Q13133); assay: Assay for LXRα Activity (HTRF, run as Example 1); assay type: biochemical; settings: 1 μM; over a background reading of 10000 fluorescence units
# T2 construct: His tag; made in house
# T2 sequence (Q13133 183-447): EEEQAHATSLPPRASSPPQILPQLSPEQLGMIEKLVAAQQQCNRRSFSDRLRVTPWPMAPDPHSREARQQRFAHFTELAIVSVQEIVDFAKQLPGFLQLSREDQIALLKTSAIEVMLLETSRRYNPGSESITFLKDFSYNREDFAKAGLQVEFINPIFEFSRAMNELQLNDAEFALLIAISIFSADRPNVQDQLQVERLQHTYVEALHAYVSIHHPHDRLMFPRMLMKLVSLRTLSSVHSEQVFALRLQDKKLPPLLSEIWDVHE
# T2 sequence (Q15788 676-700 partner): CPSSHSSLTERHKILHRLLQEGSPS
# Description: The assay for LXRα was run according to the procedures of Example 1, above using his-tagged LXRα ligand binding domain (amino acids 183-447 of Genbank accession number U22662, with the 14th amino acid corrected to A from R).
# In this assay 1 μM 24(S),25-epoxycholesterol gave a reading of 20000 fluorescence units over a background reading of 10000 fluorescence units.
smiles,measurement,setting,value
"C[C@H](CC[C@@H]1OC1(C)C)[C@H]1CC[C@H]2[C@@H]3CC=C4C[C@@H](O)CC[C@]4(C)[C@H]3CC[C@]12C [24(S),25-epoxycholesterol]",reading,[1],20000 fluorescence units
same,reading,[2],20000 fluorescence units
